Data set [1] concerns tumor cells. The data set can be described thus: Inhibition of cell growth (MTT), summary over tumor cells. The data set is classed as cell-based. On the procedure: (§1) Each cell defined in Table 3 was put in each well of a 96-well microtiter plate in one 0.1 ml-scale containing the defined number of cells and preincubated for one day under the same condition as in 1). PA-48153C (0.1 ml) was added to each well in such a manner that its final concentration was in a range from 0 to 5,000 ng/ml. After 3-4 days incubation, 25 μl of 6 mg/ml MTT [3-(4,5-dimethylthiazol-2-yl)-2,5-diphenyltetrazolium bromide] (Sigma) was added to each well. After further incubation at 37° C. for 4 hr under the same condition, formazan generated therein was dissolved by adding 50 μl of 20% […] (SDS) in 0.02N HCl and allowing to stand at 37° C. for 24 hr. An amount of formazan generated in proportion to the number of live cells was determined according to optical density analyzed by an immunoreader (Sanko Junyaku k.k.) equipped with a 570 nm-filter (reference to J. Immunol. Methods 65, 55-63 (1983)). IC50 (concentration inhibiting 50% cell growth) was calculated from the correlativity of PA-48153C concentration with optical density.

For data set [2], the system named is LU-99. The data set can be described thus: Inhibition of cell growth (MTT). Format: cell-based, Human. As to the method: as §1
Data set [3] deals with Con A reaction of mouse splenic cell. Nature of the data set: Effect on mitogenic responses (Con A reaction of mouse splenic mononuclear cells, [3H]-TdR incorporation). The data set is classed as cell-based, C3H/HeN mice. As to the method:
Splenic mononuclear cells (5×10^5) from C3H/HeN mice were suspended in 0.2 ml of RPMI 1640 medium containing 10% fetal bovine serum and 5×10^-5 M 2-mercaptoethanol (RPMI/FCS) and plated 96-well microtiter plates. The cells were cultured with 5 μg/ml of Concanavalin A (Con A; Type IV, Sigma Chemical Co.) for 72 hr at 37° C. in a humidified atmosphere of 5% carbon dioxide and 95% of air. PA-48153C was dissolved in dimethyl sulfoxide (DMSO) and added to the mitogenic response. The final concentration was not more than 100 ng/ml. Eighteen hours before harvesting, 0.5 μCi of tritiated thymidine ([^3 H]-TdR) was added to each well. The cells were harvested onto glass filter paper using a semi-automated multiple cell harvester, and [^3 H]-TdR incorporation was determined by liquid scintillation counter.

Data set [4] concerns P388. Nature of the data set: Inhibition of cell growth (MTT). Format: cell-based. The conditions noted are these: Mouse leukemia, RPMI 1640, 5 × 10^2 cells/well, 3-4 days, read-out: IC50 (concentration inhibiting 50% cell growth). On the procedure:
as §1

The test system of data set [5] is CCD-19Lu. The data set can be described thus: Inhibition of cell growth (MTT). The data set is classed as cell-based. The conditions noted are these: Human normal lung, MEM, 2 × 10^4 cells/well, 3-4 days, read-out: IC50 (concentration inhibiting 50% cell growth). On the procedure:
as §1

Data set [6] has as its system Aspergillus fumigatus IFO 8866. Nature of the data set: Antifungal activity, liquid doubling dilution method. Format: cell-based. The conditions noted are these: IFO8866, Sabouraud broth, 24 hr, 37° C., read-out: minimum inhibitory concentration (MIC). As to the method: (§2) Antifungal activity of PA-48153C was determined according to the liquid doubling dilution method using Sabouraud or YNB broth.

The test system of data set [7] is Candida albicans KE-2. The data set is described as above. The data set is classed as cell-based. The conditions noted are these: KE2, YNB broth, 48 hr, 37° C., read-out: minimum inhibitory concentration (MIC). On the procedure: as §2
Data set [8] deals with allo-MLR (C3H/HeN mouse splenic mononuclear cells with C57BL/6 mouse splenic mononuclear cells). Nature of the data set: Allogenic mixed lymphocyte reaction (allo-MLR) in vitro, [3H]-TdR incorporation. The settings on record: 144 h, 6 days, read-out: IC50 value inhibiting allo MLR. The data set is classed as cell-based. On the procedure: Induction and assay of allo-MLR were performed in 96 well microtiter plates. C3H/HeN (H-2^k) mouse splenic mononuclear cells (5×10^5 cells in 0.1 ml of RPMI/FCS) were mixed with an equal volume of mitomycin C-treated (50 μg/ml, 37° C., 30 min, washed 3 times with RPMI 1640) C57BL/6 (H-2^b) mouse splenic mononuclear cells (5×10^5 cells) and incubated with RPMI/FCS in 96 well microtiter plate for 6 days under the same condition as described in 1). PA-48153C was added to the allo-MLR in such a manner that its final concentration was not more than 100 ng/ml. Eighteen hours before harvesting, 0.5 μCi of [^3 H]-TdR was pulsed to each well. The cells were harvested and assayed for allo-MLR by their ability to uptake [^3 H]-TdR incorporation.

A short description of data set [9]: Solubility. The data set is classed as physicochemical.
Data set [10] relates to P388/ADM. The data set can be described thus: Inhibition of cell growth (MTT). The data set is classed as cell-based, Mouse. As to the method:
as §1

These results are taken from patent US5314911A, “Immunosuppressive agent” (Shionogi Seiyaku Kabushiki Kaisha, priority 1992, dated 1994).

In brackets after ≈: the same amount, converted by molar mass. Some results are limits rather than exact numbers.

The inhibition is the percentage by which the read-out fell short of the control. Higher therefore signals a response far below the control.

In the case of `C/C=C/C[C@H](C)[C@@H](OC)[C@@H](C)[C@H](O)C[C@H]1OC(=O)C=C[C@H]1CC` (relative stereo) [PA-48153C, (5R*,6R*)-5-ethyl-5,6-dihydro-6-[(E)-(2R*,3S*,4R*,5S*)-2-hydroxy-4-methoxy-3,5-dimethyl-7-nonenyl]-2H-pyran-2-one], the “growth inhibition of tumor cells (in words)” value in data set [1] is “strongly inhibits the growth of tumor cells”. Further, the IC50 in data set [2] (Lu-99, Human giant-cell carcinoma of lung, RPMI 1640, 2 × 10^3 cells/well, 3-4 days, read-out: IC50 (concentration inhibiting 50% cell growth)) is 2.2 ng/mL (≈ 0.00678 µM); in [3] (Mus musculus, Con A 5 μg/ml, 72 hr), 4.8 ng/mL (≈ 0.0148 µM); in data set [4], 1.8 ng/mL (≈ 0.00555 µM); in data set [5] it was above 5000 ng/mL; in data set [8] it was 3.1 ng/mL (≈ 0.00955 µM); in data set [10] (P388/ADM, Mouse leukemia (multi-resistant carcinoma), RPMI 1640, 5 × 10^2 cells/well, 3-4 days, read-out: IC50 (concentration inhibiting 50% cell growth)) it was 4.8 ng/mL (≈ 0.0148 µM). In addition, the “IC50 to normal lung cell CCD-19Lu relative to that to giant-cell carcinoma of lung Lu-99” value in data set [2] (ratio CCD-19Lu / Lu-99) is reported as “at least 2,500 times”. The molecule also registered an inhibition at 0.0017 µg/mL in data set [3] (Mus musculus, PA-48153C 1.7 ng/ml, Con A 5 μg/ml, 72 hr) of 83.8%. This molecule registered an inhibition at 0.0056 µg/mL in [3] (Mus musculus, PA-48153C 5.6 ng/ml, Con A 5 μg/ml, 72 hr) of 61.6%. This molecule also gave an inhibition at 0.05 µg/mL in data set [3] (Mus musculus, PA-48153C 50.0 ng/ml, Con A 5 μg/ml, 72 hr) of 94%. The “Radioactivity cpm ± SD” value is given as 10,200 ± 451 cpm in data set [3] (PA-48153C 1.7 ng/ml, Con A 5 μg/ml, 72 hr); 24,200 ± 883 cpm in data set [3] (PA-48153C 5.6 ng/ml, Con A 5 μg/ml, 72 hr); 3,780 ± 141 cpm in [3] (PA-48153C 50.0 ng/ml, Con A 5 μg/ml, 72 hr). Further, in [3] (splenic mononuclear cell from normal mice), the “inhibition of proliferative response to Con A (in words)” value is on record as “inhibited the proliferative response of splenic mononuclear cell from normal mice to Con A in a dose-dependent fashion”. The MIC was 12500 ng/mL (≈ 38.5 µM) in [6] and 50000 ng/mL (≈ 154 µM) in [7]. In addition, in [9] (n-hexane, ethyl acetate, chloroform, methanol), the “Solubility in organic solvents” value was “soluble in n-hexane, ethyl acetate, chloroform, methanol”. Besides, in [9] (water), the Solubility in water entry is “insoluble in water”. The “growth inhibition of multi-resistant carcinoma P388/ADM (in words)” value in [10] is “strongly inhibits the growth of multi-resistant carcinoma P388/ADM”.
